Test results reported in patent US8722715B2, “Antimicrobial oxazolidinone, hydantoin and imidazolidinone compositions” (NovaBay Pharmaceuticals, priority 2008, dated 2014).

Legend:
Type in all cases: cell-based
[1] = system: Staphylococcus aureus (ATCC 29213); test: Antimicrobial activity, MBC, S. aureus ATCC 29213; conditions: 1 h at room temperature
Method: (§1) To determine antimicrobial activity of compounds of the present disclosure, Escherichia coli (ATCC 25922), Staphylococcus aureus (ATCC 29213), Pseudomonas aeruginosa (ATCC 27853), and Candida albicans (ATCC 10231) were used in primary screening. In addition, Escherichia coli (MCC 80392), Staphylococcus aureus (MCC 91731), Pseudomonas aeruginosa (MCC 4438), and Candida albicans (MCC 50319), provided by Alcon Laboratories, Fort Worth, Tex., were used. The microbial cultures were diluted in sterile saline pH 4 to prepare inocula. Test compounds were titrated by stepwise two-fold dilutions in sterile saline pH 4. A total of 1.0×10^5 to 1.0×10^6 Colony Forming Units (CFU)/mL microbe was added to each tube, mixed by gentle vortexing, and then incubated at room temperature for 1 h. Microbial plating on Petri dishes (Tryptic Soy agar or Saboraud's Dextrose agar) was performed immediately after the designated exposure after neutralization of the test article dilutions in Dey-Engley Broth. Plates were incubated at 37° C., and the numbers of microbes were counted by direct colony count to quantitate the surviving microbes as CFU/mL. Positive growth controls were made with sterile 0.9% saline. Compounds were dissolved in unbuffered isotonic saline (SAL) or phosphate buffered saline (PBS) at pH 4 or pH 7 (using HCl and/or NaOH as needed). All compounds were tested three times. The results are tabulated to show the comparison of antimicrobial effectiveness range of the compounds. Data shown are the Minimum Bactericidal Concentration (MBC) or Minimum Fungicidal Concentration (MFC) (≧99.9% kill) in μg/mL.

[2] = system: Escherichia coli (ATCC 25922); test: Antimicrobial activity, MBC, E. coli ATCC 25922; conditions: 1 h at room temperature
Method: as §1

[3] = system: Candida albicans (ATCC 10231); test: Antimicrobial activity, MFC, C. albicans ATCC 10231; conditions: 1 h at room temperature
Method: as §1

[4] = system: Candida albicans (MCC 50319); test: Antimicrobial activity, MFC, C. albicans MCC 50319; conditions: 1 h at room temperature
Method: as §1, with “The results are tabulated to show the comparison of antimicrobial effectiveness range of the compounds. Data shown are the Minimum Bactericidal Concentration (MBC) or Minimum Fungicidal Concentration (MFC) (≧99.9% kill) in μg/mL.” left out

[5] = system: Escherichia coli (MCC 80392); test: Antimicrobial activity, MBC, E. coli MCC 80392; conditions: 1 h at room temperature
Method: as §1, with “The results are tabulated to show the comparison of antimicrobial effectiveness range of the compounds. Data shown are the Minimum Bactericidal Concentration (MBC) or Minimum Fungicidal Concentration (MFC) (≧99.9% kill) in μg/mL.” left out

[6] = system: Staphylococcus aureus (MCC 91731); test: Antimicrobial activity, MBC, S. aureus MCC 91731; conditions: 1 h at room temperature
Method: as §1, with “The results are tabulated to show the comparison of antimicrobial effectiveness range of the compounds. Data shown are the Minimum Bactericidal Concentration (MBC) or Minimum Fungicidal Concentration (MFC) (≧99.9% kill) in μg/mL.” left out

[7] = system: mouse fibroblast cells (ATCC CCL-1, L929); test: Cytotoxicity, WST-8 colorimetric assay; conditions: pH 4 (Sal), 60 min exposure, WST-8 read after 18-20 hours
Method: Cytotoxicity is assessed by a colorimetric assay system using the Dojindo™ cell counting kit containing 2-(2-methoxy-4-nitrophenyl)-3-(4-nitrophenyl)-5-(2,4-disulfophenyl)-2H-tetrazolium, monosodium salt (WST-8). In this assay, the WST-8 reagent is bioreduced by cellular dehydrogenases to a formazan product that is highly soluble in tissue culture medium. The orange formazan, which is produced only by live cells, is a direct measure of cell viability and can be read spectrophotometrically (e.g., evaluation of a soluble tetrazolium/formazan assay for cell growth and drug sensitivity in culture using human and other tumor cell lines is described by D. A. Scudiero et al., Cancer Res., 48(17), 4827-33 (1988). Similar approaches for determining the cell viability are known in the art.
In a standard assay, mouse fibroblast cells (ATCC CCL-1, L929), are cultured in Minimum Essential Medium, α-medium supplemented with 10% heat inactivated fetal bovine serum, L-glutamine, penicillin and streptomycin. Cells are trypsinized and counted under the microscope and seeded at 1.5×10^4 total cells per 100 μL per well of a flat-bottom 96-well plate in order to achieve ˜80% confluence after overnight incubation at 37° C. […]
Test articles were prepared as 2-fold serial dilutions and 170 μL of each dilution was added into each of 4-wells (total volume per well=200 μL). […] Absorbance was read at 450 nm with reference wavelength at 750 nm using Molecular Device SpectraMax M5 plate reader. […]
The CT50 value for each compound was calculated from the absorbance values (A450/750) and is defined as the concentration of test article that results in survival of 50% of the cells following treatment. The absorbance A450/750 from each well of untreated cells and from each well within the dilution series was measured. […] Next, a non-linear regression (curve fit) analysis was performed on all the absorbance data measured from the dilution series, including the absorbance data obtained from wells of the untreated control cells. […]

[8] = system: Pseudomonas aeruginosa (ATCC 27853); test: Antimicrobial activity, MBC, P. aeruginosa ATCC 27853; conditions: pH 7 (PBS), 1 h at room temperature
Method: as §1, with “The results are tabulated to show the comparison of antimicrobial effectiveness range of the compounds. Data shown are the Minimum Bactericidal Concentration (MBC) or Minimum Fungicidal Concentration (MFC) (≧99.9% kill) in μg/mL.” left out

2-(3-Chloro-4,4-dimethyl-2,5-dioxoimidazolidin-1-yl)-N,N,N-trimethylethanaminium chloride [Compound 22-48]
Minimum Bactericidal Concentration (MBC) (≧99.9% kill) ([1]; pH 4 (Sal)): >128 µg/mL
Minimum Bactericidal Concentration (MBC) (≧99.9% kill) ([1]; pH 7 (PBS)): 16 µg/mL
Minimum Bactericidal Concentration (MBC) (≧99.9% kill) ([2]; pH 4 (Sal)): 128 µg/mL
Minimum Bactericidal Concentration (MBC) (≧99.9% kill) ([2]; pH 7 (PBS)): 4 µg/mL
Minimum Fungicidal Concentration (MFC) (≧99.9% kill) ([3]; pH 4 (Sal)): 1024 µg/mL
Minimum Fungicidal Concentration (MFC) (≧99.9% kill) ([3]; pH 7 (PBS)): 128 µg/mL

CC1(CS(=O)(=O)O)COC(=O)N1Cl (centres unmarked) [Compound 22-01, (3-chloro-4-methyl-2-oxooxazolidin-4-yl)methanesulfonic acid]
Minimum Fungicidal Concentration (MFC) (≧99.9% kill) ([4]; pH 4 (Sal)): 128 µg/mL
Minimum Fungicidal Concentration (MFC) (≧99.9% kill) ([4]; pH 7 (PBS)): 128 µg/mL
Minimum Bactericidal Concentration (MBC) (≧99.9% kill) ([5]; pH 4 (Sal)): 2 µg/mL
Minimum Bactericidal Concentration (MBC) (≧99.9% kill) ([5]; pH 7 (PBS)): 16 µg/mL
Minimum Bactericidal Concentration (MBC) (≧99.9% kill) ([6]; pH 4 (Sal)): 16 µg/mL
Minimum Bactericidal Concentration (MBC) (≧99.9% kill) ([6]; pH 7 (PBS)): 16 µg/mL
Minimum Bactericidal Concentration (MBC) (≧99.9% kill) ([1]; pH 4 (Sal)): 256 µg/mL
Minimum Bactericidal Concentration (MBC) (≧99.9% kill) ([1]; pH 7 (PBS)): 256 µg/mL
Minimum Bactericidal Concentration (MBC) (≧99.9% kill) ([2]; pH 4 (Sal)): 256 µg/mL
Minimum Bactericidal Concentration (MBC) (≧99.9% kill) ([2]; pH 7 (PBS)): 128 µg/mL
Minimum Fungicidal Concentration (MFC) (≧99.9% kill) ([3]; pH 4 (Sal)): >512 µg/mL
Minimum Fungicidal Concentration (MFC) (≧99.9% kill) ([3]; pH 7 (PBS)): 1024 µg/mL
CT50 (concentration of test article that results in survival of 50% of the cells) [7]: 1.1 mM
Minimum Bactericidal Concentration (MBC) (≧99.9% kill) [8]: 256 µg/mL

CC1(C[N+](C)(C)C)COC(=O)N1Cl.[Cl-] (centres unmarked) [Compound 22-04, 1-(3-Chloro-4-methyl-2-oxooxazolidin-4-yl)-N,N,N-trimethylmethanaminium chloride]
Minimum Bactericidal Concentration (MBC) (≧99.9% kill) ([1]; pH 4 (Sal)): 64 µg/mL
Minimum Bactericidal Concentration (MBC) (≧99.9% kill) ([2]; pH 4 (Sal)): 16 µg/mL
Minimum Fungicidal Concentration (MFC) (≧99.9% kill) ([3]; pH 4 (Sal)): >256 µg/mL

CN1C(=O)N(Cl)C(C)(C[N+](C)(C)C)C1=O.[Cl-] (centres unmarked) [Compound 22-27, 1-(3-chloro-1,4-dimethyl-2,5-dioxoimidazolidin-4-yl)-N,N,N-trimethylmethanaminium chloride]
Minimum Bactericidal Concentration (MBC) (≧99.9% kill) ([1]; pH 4 (Sal)): 64 µg/mL
Minimum Bactericidal Concentration (MBC) (≧99.9% kill) ([2]; pH 4 (Sal)): 16 µg/mL
Minimum Fungicidal Concentration (MFC) (≧99.9% kill) ([3]; pH 4 (Sal)): >256 µg/mL

C[N+]1(C)CCC2(CC1)CN(Cl)C(=O)O2.[Cl-] [Compound 22-36, 3-chloro-8,8-dimethyl-2-oxo-1-oxa-3-aza-8-azoniaspiro[4.5]decane chloride]
Minimum Bactericidal Concentration (MBC) (≧99.9% kill) ([1]; pH 4 (Sal)): 512 µg/mL
Minimum Bactericidal Concentration (MBC) (≧99.9% kill) ([1]; pH 7 (PBS)): 32 µg/mL
Minimum Bactericidal Concentration (MBC) (≧99.9% kill) ([2]; pH 4 (Sal)): 256 µg/mL
Minimum Bactericidal Concentration (MBC) (≧99.9% kill) ([2]; pH 7 (PBS)): 16 µg/mL
Minimum Fungicidal Concentration (MFC) (≧99.9% kill) ([3]; pH 7 (PBS)): 256 µg/mL
CT50 (concentration of test article that results in survival of 50% of the cells) [7]: 0.7 mM

CC[N+](C)(C)CC1(C)COC(=O)N1Cl.[Cl-] (centres unmarked) [Compound 22-38, N-((3-chloro-4-methyl-2-oxooxazolidin-4-yl)methyl)-N,N-dimethylethanaminium chloride]
Minimum Bactericidal Concentration (MBC) (≧99.9% kill) ([1]; pH 4 (Sal)): 64 µg/mL
Minimum Bactericidal Concentration (MBC) (≧99.9% kill) ([1]; pH 7 (PBS)): 4 µg/mL
Minimum Bactericidal Concentration (MBC) (≧99.9% kill) ([2]; pH 4 (Sal)): 16 µg/mL
Minimum Bactericidal Concentration (MBC) (≧99.9% kill) ([2]; pH 7 (PBS)): 2 µg/mL
Minimum Fungicidal Concentration (MFC) (≧99.9% kill) ([3]; pH 7 (PBS)): 8 µg/mL
CT50 (concentration of test article that results in survival of 50% of the cells) [7]: 0.86 mM
